Assays:
BCDIN3D [1] = molecular target: T1, BCDIN3D (Homo sapiens, UniProt Q7Z5W3); assay: BCDIN3D InCellPulse thermal stability assay in transfected A549 cells; format: cell-based; settings: transiently transfected A549 cells, heat shock 58° C. 15 min
T1 sequence (Q7Z5W3 1-292): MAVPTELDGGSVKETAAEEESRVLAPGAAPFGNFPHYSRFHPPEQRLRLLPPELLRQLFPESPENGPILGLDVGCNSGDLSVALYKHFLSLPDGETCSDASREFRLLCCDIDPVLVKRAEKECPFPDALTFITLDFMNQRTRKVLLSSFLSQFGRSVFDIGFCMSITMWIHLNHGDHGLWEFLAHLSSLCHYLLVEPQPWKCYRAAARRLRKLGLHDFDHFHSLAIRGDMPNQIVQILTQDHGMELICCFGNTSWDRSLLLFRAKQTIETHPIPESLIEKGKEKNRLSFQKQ
Outline: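 Thermal stabilisation read-out: after a 15 min 58 °C heat shock, ePL-tagged BCDIN3D in transiently transfected A549 cells (1500/well) was quantified by enzyme-fragment complementation luminescence. Compounds were pre-incubated with cells 1 h at 37 °C, 0.6% DMSO final.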

BCDIN3D [2] = molecular target: T1, BCDIN3D; assay: BCDIN3D IC50 RFMS (RapidFire) assay with mini-helix; format: biochemical; settings: mini-helix substrate 0.2 μM, SAM 6 μM, 25 nM enzyme
Outline: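 SAH formation was measured by RapidFire mass spectrometry with D4- and 13C10-SAH internal standards after TCA quench. Substrates 6 μM SAM and 0.2 μM mini-helix reacted 1 h at 37 °C with 25 nM enzyme, which had been preincubated 10 min with compound (1% DMSO) in Tris pH 8.0 buffer with DTT, EDTA, BSA.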

Row | Structure (SMILES) | IC50 (BCDIN3D [1]) | IC50 (BCDIN3D [2])
1 | Cn1ncc2c(Nc3ccc(C(F)(F)F)nc3)nc(NCC(C)(N)c3ccccc3)nc21 (centres unmarked) [Compound 4.26, 6-N-(2-amino-2-phenylpropyl)-1-methyl-4-N-[6-(trifluoromethyl)pyridin-3-yl]pyrazolo[3,4-d]pyrimidine-4,6-diamine] | 384 nM | 21.7 nM
2 | [2H]C([2H])([2H])n1ncc2c(Nc3ccc(C(F)(F)F)nc3)nc(NCC(C)(N)c3ccccc3)nc21 (centres unmarked) [Compound 4.27, N6-(2-amino-2-phenyl-propyl)-1-(trideuteriomethyl)-N4-[6-(trifluoromethyl)-3-pyridyl]pyrazolo[3,4-d]pyrimidine-4,6-diamine] | 610 nM | 46.6 nM
3 | Cn1ncc2c(Nc3ccc(OC(F)F)nc3)nc(NCC(N)c3ccccc3)nc21 (centres unmarked) [Compound 4.28, N6-(2-amino-2-phenyl-ethyl)-N4-[6-(difluoromethoxy)-3-pyridyl]-1-methyl-pyrazolo[3,4-d]pyrimidine-4,6-diamine] | 318 nM | 149 nM
4 | Cn1ncc2c(Nc3ccc(OC(F)F)nc3)nc(NCC(C)(N)c3ccccc3)nc21 (centres unmarked) [Compound 4.29, N6-(2-amino-2-phenyl-propyl)-N4-[6-(difluoromethoxy)-3-pyridyl]-1-methyl-pyrazolo[3,4-d]pyrimidine-4,6-diamine] | 525 nM | 116 nM
5 | Cn1ncc2c(Nc3ccc(Cl)cc3)nc(NC[C@H](N)c3ccccc3)nc21 [Compound 4.30, N6-[(2R)-2-amino-2-phenyl-ethyl]-N4-(4-chlorophenyl)-1-methyl-pyrazolo[3,4-d]pyrimidine-4,6-diamine] | 62.6 nM | 28.6 nM
6 | COc1ccc(Nc2nc(NC[C@H](N)c3ccccc3)nc3c2cnn3C)cc1 [Compound 4.32, N6-[(2R)-2-amino-2-phenyl-ethyl]-N4-(4-methoxyphenyl)-1-methyl-pyrazolo[3,4-d]pyrimidine-4,6-diamine] | 140 nM | 95.8 nM
7 | CC(C)Oc1ccc(Nc2nc(NC[C@H](N)c3ccccc3)nc3c2cnn3C)cc1 [Compound 4.33, N6-[(2R)-2-amino-2-phenyl-ethyl]-N4-(4-isopropoxyphenyl)-1-methyl-pyrazolo[3,4-d]pyrimidine-4,6-diamine] | 38 nM | 64.4 nM
8 | CN(C)c1ccc(Nc2nc(NC[C@H](N)c3ccccc3)nc3c2cnn3C)cc1 [Compound 4.35, N6-[(2R)-2-amino-2-phenyl-ethyl]-N4-[4-(dimethylamino)phenyl]-1-methyl-pyrazolo[3,4-d]pyrimidine-4,6-diamine] | 141 nM | 143 nM
9 | CNc1nc(NCC(N)c2ccccc2)nc2c1cnn2C (centres unmarked) [Compound 4.36, 6-N-(2-amino-2-phenylethyl)-4-N,1-dimethylpyrazolo[3,4-d]pyrimidine-4,6-diamine] | 1860 nM | 554 nM
10 | [2H]C([2H])([2H])n1ncc2c(NC)nc(NCC(N)c3ccccc3)nc21 (centres unmarked) [Compound 4.38, 6-N-(2-amino-2-phenylethyl)-4-N-methyl-1-(trideuteriomethyl)pyrazolo[3,4-d]pyrimidine-4,6-diamine] | 9560 nM | 8100 nM
11 | CCNc1nc(NCC(N)c2ccccc2)nc2c1cnn2C (centres unmarked) [Compound 4.41, 6-N-(2-amino-2-phenylethyl)-4-N-ethyl-1-methylpyrazolo[3,4-d]pyrimidine-4,6-diamine] | 3330 nM | 945 nM
12 | CCN(C)c1nc(NCC(N)c2ccccc2)nc2c1cnn2C (centres unmarked) [Compound 4.42, 6-N-(2-amino-2-phenylethyl)-4-N-ethyl-4-N,1-dimethylpyrazolo[3,4-d]pyrimidine-4,6-diamine] | 7570 nM | 2280 nM
13 | Cn1ncc2c(NCC(F)(F)F)nc(NCC(N)c3ccccc3)nc21 (centres unmarked) [Compound 4.44, 6-N-(2-amino-2-phenylethyl)-1-methyl-4-N-(2,2,2-trifluoroethyl)pyrazolo[3,4-d]pyrimidine-4,6-diamine] | 992 nM | 527 nM
14 | CC(C)Nc1nc(NC[C@H](N)c2ccccc2)nc2c1cnn2C [Compound 4.47, 6-N-[(2R)-2-amino-2-phenylethyl]-1-methyl-4-N-propan-2-ylpyrazolo[3,4-d]pyrimidine-4,6-diamine] | 667 nM | 253 nM
15 | Cn1ncc2c(N3CCCC3)nc(NCC(N)c3ccccc3)nc21 (centres unmarked) [Compound 4.48, N′-(1-methyl-4-pyrrolidin-1-ylpyrazolo[3,4-d]pyrimidin-6-yl)-1-phenylethane-1,2-diamine] | 7400 nM | 3860 nM
16 | Cn1ncc2c(NC(C)(C)C)nc(NCC(C)(N)c3ccccc3)nc21 (centres unmarked) [Compound 4.51, N6-(2-amino-2-phenyl-propyl)-N4-tert-butyl-1-methyl-pyrazolo[3,4-d]pyrimidine-4,6-diamine] | 1810 nM | 581 nM
17 | [2H]C([2H])([2H])n1ncc2c(NC(C)(C)C)nc(NCC(N)c3ccccc3)nc21 (centres unmarked) [Compound 4.52, N6-(2-amino-2-phenyl-ethyl)-N4-tert-butyl-1-(trideuteriomethyl)pyrazolo[3,4-d]pyrimidine-4,6-diamine] | 536 nM | 169 nM
18 | Cn1ncc2c(NC(C)(C)C)nc(NC[C@H](N)c3ccccc3)nc21 [Compound 4.53, 6-N-[(2R)-2-amino-2-phenylethyl]-4-N-tert-butyl-1-methylpyrazolo[3,4-d]pyrimidine-4,6-diamine] | 282 nM | 118 nM
19 | [2H]C([2H])([2H])n1ncc2c(NC(C)(C)C)nc(NC[C@H](N)c3ccccc3)nc21 [Compound 4.55, N6-[(2R)-2-amino-2-phenyl-ethyl]-N4-tert-butyl-1-(trideuteriomethyl)pyrazolo[3,4-d]pyrimidine-4,6-diamine] | 152 nM | 133 nM

Further compounds by falling IC50 (BCDIN3D [1]), results first:

Row | IC50 (BCDIN3D [1]) | IC50 (BCDIN3D [2]) | Structure (SMILES)
20 | 60000 nM | 7390 nM | Cn1ncc2c(Nc3ccc(Cl)cc3)nc(NC[C@@H](N)c3ccccc3)nc21 [Compound 4.31, N6-[(2S)-2-amino-2-phenyl-ethyl]-N4-(4-chlorophenyl)-1-methyl-pyrazolo[3,4-d]pyrimidine-4,6-diamine]
21 | 17100 nM | 9170 nM | CNc1nc(NCC(C)(N)c2ccccc2)nc2c1cnn2C (centres unmarked) [Compound 4.39, 6-N-(2-amino-2-phenylpropyl)-4-N,1-dimethylpyrazolo[3,4-d]pyrimidine-4,6-diamine]
22 | 7270 nM | 3470 nM | Cn1ncc2c(NCC3CC3)nc(NCC(N)c3ccccc3)nc21 (centres unmarked) [Compound 4.56, 6-N-(2-amino-2-phenylethyl)-4-N-(cyclopropylmethyl)-1-methylpyrazolo[3,4-d]pyrimidine-4,6-diamine]
23 | 6060 nM | 3390 nM | COCCNc1nc(NCC(N)c2ccccc2)nc2c1cnn2C (centres unmarked) [Compound 4.49, 6-N-(2-amino-2-phenylethyl)-4-N-(2-methoxyethyl)-1-methylpyrazolo[3,4-d]pyrimidine-4,6-diamine]
24 | 4790 nM | 3630 nM | CNc1nc(NC[C@H](N)c2ccccc2)nc2c1cnn2C [Compound 4.40, 6-N-[(2R)-2-amino-2-phenylethyl]-4-N,1-dimethylpyrazolo[3,4-d]pyrimidine-4,6-diamine]
25 | 4200 nM | 2560 nM | Cn1ncc2c(NC3CC3)nc(NCC(N)c3ccccc3)nc21 (centres unmarked) [Compound 4.43, 6-N-(2-amino-2-phenylethyl)-4-N-cyclopropyl-1-methylpyrazolo[3,4-d]pyrimidine-4,6-diamine]
26 | 3110 nM | 1970 nM | Cn1ncc2c(NC(C)(C)C)nc(NC[C@@H](N)c3ccccc3)nc21 [Compound 4.54, 6-N-[(2S)-2-amino-2-phenylethyl]-4-N-tert-butyl-1-methylpyrazolo[3,4-d]pyrimidine-4,6-diamine]
27 | 1130 nM | 501 nM | CC(C)Nc1nc(NCC(N)c2ccccc2)nc2c1cnn2C (centres unmarked) [Compound 4.46, 6-N-(2-amino-2-phenylethyl)-1-methyl-4-N-propan-2-ylpyrazolo[3,4-d]pyrimidine-4,6-diamine]
28 | 871 nM | 196 nM | Cn1ncc2c(NC(C)(C)C)nc(NCC(N)c3ccccc3)nc21 (centres unmarked) [Compound 4.50, 6-N-(2-amino-2-phenylethyl)-4-N-tert-butyl-1-methylpyrazolo[3,4-d]pyrimidine-4,6-diamine]
29 | 414 nM | 316 nM | Cn1ncc2c(NCC(F)(F)F)nc(NC[C@H](N)c3ccccc3)nc21 [Compound 4.45, N6-[(2R)-2-amino-2-phenyl-ethyl]-1-methyl-N4-(2,2,2-trifluoroethyl)pyrazolo[3,4-d]pyrimidine-4,6-diamine]
30 | 319 nM | 50.7 nM | Cn1ncc2c(Nc3ccc(C(F)(F)F)nc3)nc(NCC(N)c3ccccc3)nc21 (centres unmarked) [Compound 4.25, 6-N-(2-amino-2-phenylethyl)-1-methyl-4-N-[6-(trifluoromethyl)pyridin-3-yl]pyrazolo[3,4-d]pyrimidine-4,6-diamine]
31 | 162 nM | 118 nM | Cn1ncc2c(Nc3ccc(F)c(F)c3)nc(NC[C@H](N)c3ccccc3)nc21 [Compound 4.34, N6-[(2R)-2-amino-2-phenyl-ethyl]-N4-(3,4-difluorophenyl)-1-methyl-pyrazolo[3,4-d]pyrimidine-4,6-diamine]
